US20230002408A1, “HETEROARYLDIHYDROPYRIMIDINE DERIVATIVES AND METHODS OF TREATING HEPATITIS B INFECTIONS” (JANSSEN PHARMACEUTICA NV, priority 2019, published 2023)
Like-named read-outs stand apart in the source and are kept apart here.

How the values were obtained:
Assay type in all cases: cell-based
HepG2.2.15 cells = experiment: Cytotoxicity determination in HepG2.2.15 cells (CCK-8 cell viability); details: 6 days treatment, CCK-8, highest concentration 100 uM
Method: (§1) HepG2.2.15 (the HepG2.2.15 cell line can be produced by transfection of the HepG2 cell line as described in Sells, Chen, and Acs 1987 (Proc. Natl. Acad. Sci. USA 84: 1005-1009), and the HepG2 cell line is available from ATCC® under number HB-8065™).
(§2) HepG2.2.15 cells were plated into 96-well plate in 2% FBS culture medium at the density of 40,000 cells/well and 5,000 cells/well for HBV inhibitory activity and cytotoxicity determination, respectively. After incubation at 37° C., 5% CO2 overnight, cells were treated with medium containing compounds for 6 days with medium and compounds refreshed after 3 days of treatment. Each compound was tested in a 1:3 serial dilutions at 8 different concentrations in triplicate. The highest concentration of the compounds was 10 uM or 1 uM for anti-HBV activity assay and 100 uM for cytotoxicity determination. Cell viability was determined by CCK-8 assay. After 6 days of compounds treatment, 20 μl CCK-8 reagents were added to each well of cytotoxicity assay plates. Cell plates were incubated at 37° C., 5% CO2 for 2.5 h. The absorbance at 450 nm wavelength and the absorbance at 630 nm wavelength as reference was measured.
(§3) EC50 and CC50 values are calculated by the GRAPHPAD PRISM software.

HBV = experiment: Anti-viral assay in HepG2.2.15 cells: HBV DNA in culture medium by qPCR
Method: as §1, §2
The change of HBV DNA level induced by the compounds was assessed by quantitative real-time polymerase chain reaction (qPCR). Briefly, the HBV DNA in the culture medium was extracted using QlAamp 96 DNA Blood Kit according to the manual and then quantified by real-time PCR assay using the primers and probe in the table 1 below.
as §3

[1] = Cytotoxicity determination in HepG2.2.15 cells (CCK-8 cell viability); details: human, 6 days treatment, CCK-8, highest concentration 100 uM
Method: as §1, §2, §3

[2] = Hepatitis B virus, HepG2.2.15, 144 h, HepG2.2.15 cells, 6 days treatment, HBV DNA in culture medium by real-time PCR, read-out: EC50

| SMILES | CC50 (HepG2.2.15 cells) [nM] | EC50 (HBV; HepG2.2.15 cells, 6 days treatment, HBV DNA in culture medium by real-time PCR, read-out: EC50) [nM] | CC50 at 6 days [1] [nM] | EC50 (HBV; [2]) [nM] | EC50 (HBV; Hepatitis B virus, HepG2.2.15, 144 h) [nM] |
| --- | --- | --- | --- | --- | --- |
| CCOC(=O)C1=C(CN2CCO[C@H]3CN(CC(C)(C)C(=O)O)C[C@H]32)NC(c2nccs2)=N[C@H]1c1ccc(F)cc1Cl (relative stereo) [Compound I-1A, 3-((4aR*,7aS*)-4-4(R*)-6-(2-chloro-4-fluorophenyl)-5-(ethoxycarbonyl)-2-(thiazol-2-yl)-3,6-dihydropyrimidin-4-yl)methyl)hexahydropyrrolo[3,4-b][1,4]oxazin-6(2H)-yl)-2,2-dimethylpropanoic acid] | 59800 | 16 | – | – | – |
| CCOC(=O)C1=C(CN2CCO[C@H]3CN(CC(C)(C)C(=O)O)C(=O)[C@H]32)NC(c2nccs2)=N[C@H]1c1cccc(F)c1C (single isomer, unassigned) [Compound I-3B, (S)-3-((4aS*,7aS*)-4-((5-(Ethoxycarbonyl)-6-(3-fluoro-2-methylphenyl)-2-(thiazol-2-yl)-3,6-dihydropyrimidin-4-yl)methyl)-5-oxohexahydropyrrolo[3,4-b][1,4]oxazin-6(2H)-yl)-2,2-dimethylpropanoic acid] | – | – | 60200 | 5.2 | – |
| COC(=O)C1=C(CN2CCO[C@@H]3CN(C(=O)OC(C)(C)C)C[C@H]32)NC(c2ncc(F)cc2F)=N[C@H]1c1ccc(F)cc1Cl (single isomer, unassigned) [Reference 1A, (4aR*,7aR*)-tert-butyl 4-(((R*)-6-(2-chloro-4-fluorophenyl)-2-(3,5-difluoropyridin-2-yl)-5-(methoxycarbonyl)-3,6-dihydropyrimidin-4-yl)methyl)hexahydropyrrolo[3,4-b][1,4]oxazine-6(2H)-carboxylate, reference compound] | – | – | 14000 | > 1000 | – |
| CCOC(=O)C1=C(CN2CCO[C@@H]3CN(CC(C)(C)C(=O)O)CC[C@@H]32)NC(c2nccs2)=N[C@H]1c1cccc(F)c1C (single isomer, unassigned) [Compound I-11A, (S)-3-((4aR*,8aS*)-1-((5-(Ethoxycarbonyl)-6-(3-fluoro-2-methylphenyl)-2-(thiazol-2-yl)-3,6-dihydropyrimidin-4-yl)methyl)hexahydro-1H-pyrido[3,4-b][1,4]oxazin-6(7H)-yl)-2,2-dimethylpropanoic acid] | – | – | 97900 | 48 | – |
| COC(=O)C1=C(CN2CCO[C@H]3CN(CC(C)(C)C(=O)O)C[C@H]32)NC(c2nccs2)=N[C@H]1c1ccc(F)cc1Cl (single isomer, unassigned) [Compound I-15A, 3-((4aR*,7aS*)-4-((R*)-6-(2-Chloro-4-fluorophenyl)-5-(methoxycarbonyl)-2-(thiazol-2-yl)-3,6-dihydropyrimidin-4-yl)methyl)hexahydropyrrolo[3,4-b][1,4]oxazin-6(2H)-yl)-2,2-dimethylpropanoic acid] | – | – | > 100000 | 19 | – |
| COC(=O)C1=C(CN2CCO[C@H]3CN(CC(C)(C)C(=O)O)C(=O)[C@H]32)NC(c2nccs2)=N[C@H]1c1ccc(F)c(F)c1C (single isomer, unassigned) [Compound I-17B, 3-((4aS*,7aS*)-4-(((S*)-6-(3,4-difluoro-2-methylphenyl)-5-(methoxycarbonyl)-2-(thiazol-2-yl)-3,6-dihydropyrimidin-4-yl)methyl)-5-oxohexahydropyrrolo[3,4-b][1,4]oxazin-6(2H)-yl)-2,2-dimethylpropanoic acid] | – | – | 41700 | 2.6 | – |
| CCOC(=O)C1=C(CN2CCO[C@H]3CN(C(=O)C(C)(C)C(=O)O)C[C@H]32)NC(c2nccs2)=N[C@H]1c1cccc(F)c1C (relative stereo) [Compound I-12A, 3-((4aR*,7aS*)-4-4(S)-5-(ethoxycarbonyl)-6-(3-fluoro-2-methylphenyl)-2-(thiazol-2-yl)-3,6-dihydropyrimidin-4-yl)methyl)hexahydropyrrolo[3,4-b][1,4]oxazin-6(2H)-yl)-2,2-dimethyl-3-oxopropanoic acid] | – | – | > 100000 | – | 310 |
| COC(=O)C1=C(CN2CCO[C@H]3CN(C(=O)OC(C)(C)C)C[C@@H]32)NC(c2ncc(F)cc2F)=N[C@@H]1c1ccc(F)cc1Cl (single isomer, unassigned) [Reference 1D, (4aS*,7aS*)-tert-butyl 4-4(S*)-6-(2-chloro-4-fluorophenyl)-2-(3,5-difluoropyridin-2-yl)-5-(methoxycarbonyl)-3,6-dihydropyrimidin-4-yl)methyl)hexahydropyrrolo[3,4-b][1,4]oxazine-6(2H)-carboxylate, reference compound] | – | – | 5600 | 812 | – |
| COC(=O)C1=C(CN2CCO[C@H]3CN(CC(C)(C)C(=O)O)C[C@H]32)NC(c2nccs2)=N[C@H]1c1cccc(F)c1Cl (single isomer, unassigned) [Compound I-16A, 3-((4aR*,7aS*)-4-0(R*)-6-(2-Chloro-3-fluorophenyl)-5-(methoxycarbonyl)-2-(thiazol-2-yl)-3,6-dihydropyrimidin-4-yl)methyl)hexahydropyrrolo[3,4-b][1,4]oxazin-6(2H)-yl)-2,2-dimethylpropanoic acid] | – | – | 92800 | 15 | – |
| COC(=O)C1=C(CN2CCO[C@@H]3CN(C(=O)OC(C)(C)C)C[C@H]32)NC(c2ncc(F)cc2F)=N[C@@H]1c1ccc(F)cc1Cl (single isomer, unassigned) [Reference 1C, (4aR*,7aR*)-tert-butyl 4-4(S*)-6-(2-chloro-4-fluorophenyl)-2-(3,5-difluoropyridin-2-yl)-5-(methoxycarbonyl)-3,6-dihydropyrimidin-4-yl)methyl)hexahydropyrrolo[3,4-b][1,4]oxazine-6(2H)-carboxylate, reference compound] | – | – | 3700 | 677 | – |
| COC(=O)C1=C(CN2CCO[C@H]3CN(CC(C)(C)C(=O)O)C(=O)[C@H]32)NC(c2nccs2)=N[C@H]1c1ccc(F)c(F)c1Cl (single isomer, unassigned) [Compound I-22A, 3-((4aS*,7aS*)-4-4(R*)-6-(2-chloro-3,4-difluorophenyl)-5-(methoxycarbonyl)-2-(thiazol-2-yl)-3,6-dihydropyrimidin-4-yl)methyl)-5-oxohexahydropyrrolo[3,4-b][1,4]oxazin-6(2H)-yl)-2,2-dimethylpropanoic acid] | – | – | 44300 | 0.5 | – |
| COC(=O)C1=C(CN2CCO[C@H]3CN(C(=O)OC(C)(C)C)C[C@H]32)NC(c2ncc(F)cc2F)=N[C@@H]1c1ccc(F)cc1Cl (single isomer, unassigned) [Reference 1F, tert-butyl (4aR*,7aS*)-4-4(S*)-6-(2-chloro-4-fluorophenyl)-2-(3,5-difluoropyridin-2-yl)-5-(methoxycarbonyl)-3,6-dihydropyrimidin-4-yl)methyphexahydropyrrolo[3,4-b][1,4]oxazine-6(2H)-carboxylate, reference compound] | – | – | 5800 | 87 | – |
| CCOC(=O)C1=C(CN2CCO[C@@H]3CN(S(C)(=O)=O)C[C@@H]32)NC(c2nccs2)=N[C@H]1c1cccc(F)c1C (racemic) [Compound I-7F, (S)-(cis)-Ethyl 4-(3-fluoro-2-methylphenyl)-6-((6-(methylsulfonyl)hexahydropyrrolo[3,4-b][1,4]oxazin-4(4aH)-yl)methyl)-2-(thiazol-2-yl)-1,4-dihydropyrimidine-5-carboxylate] | – | – | 26400 | 8 | – |
